Laboratory results from the NIST ThermoML archive (doi:10.1016/j.jct.2008.12.021).
Numbers after ± are expanded uncertainties.

Experiment: osmotic coefficient (dimensionless); mn = molality of the nth substance listed, in mol/kg
Settings: 323.15 K, Liquid, vapour pressure osmometer

COS(=O)(=O)[O-].Cn1cc[n+](C)c1 [1,3-dimethylimidazolium methylsulfate] + CC(C)O gave an osmotic coefficient (m1 = 0.0241) of 0.914 ± 0.012, an osmotic coefficient (m1 = 0.0557) of 0.846 ± 0.013 and an osmotic coefficient (m1 = 0.2089) of 0.683 ± 0.016. It also gave an osmotic coefficient (m1 = 0.3053) of 0.614 ± 0.018, an osmotic coefficient (m1 = 0.3982) of 0.588 ± 0.019 and an osmotic coefficient (m1 = 0.6947) of 0.509 ± 0.021. For the same compound, the osmotic coefficient (m1 = 0.9721) was 0.461 ± 0.023, the osmotic coefficient (m1 = 1.274) was 0.442 ± 0.023 and the osmotic coefficient (m1 = 1.66) was 0.416 ± 0.024. The osmotic coefficient (m1 = 2.058) was 0.392 ± 0.025, the osmotic coefficient (m1 = 2.447) was 0.364 ± 0.025 and the osmotic coefficient (m1 = 2.827) was 0.343 ± 0.026. It also gave an osmotic coefficient (m1 = 3.313) of 0.329 ± 0.027, an osmotic coefficient (m1 = 3.712) of 0.323 ± 0.027 and an osmotic coefficient (m1 = 4.112) of 0.298 ± 0.028.

With CCCCn1cc[n+](C)c1.COS(=O)(=O)[O-] [1-butyl-3-methylimidazolium methyl sulfate] + CC(C)O the osmotic coefficient (m1 = 0.0524) was 0.95 ± 0.012, the osmotic coefficient (m1 = 0.0842) was 0.905 ± 0.012 and the osmotic coefficient (m1 = 0.1084) was 0.871 ± 0.013. It also gave an osmotic coefficient (m1 = 0.2087) of 0.799 ± 0.014, an osmotic coefficient (m1 = 0.3036) of 0.733 ± 0.015 and an osmotic coefficient (m1 = 0.4106) of 0.685 ± 0.016. It also gave an osmotic coefficient (m1 = 0.4869) of 0.648 ± 0.017, an osmotic coefficient (m1 = 0.682) of 0.588 ± 0.019 and an osmotic coefficient (m1 = 0.9823) of 0.523 ± 0.021. For the same compound, the osmotic coefficient (m1 = 1.32) was 0.493 ± 0.022, the osmotic coefficient (m1 = 1.692) was 0.488 ± 0.022 and the osmotic coefficient (m1 = 2.05) was 0.502 ± 0.021. For the same compound, the osmotic coefficient (m1 = 2.446) was 0.48 ± 0.022, the osmotic coefficient (m1 = 2.829) was 0.455 ± 0.023 and the osmotic coefficient (m1 = 3.311) was 0.451 ± 0.023.

CCCCn1cc[n+](C)c1.COS(=O)(=O)[O-] [1-butyl-3-methylimidazolium methyl sulfate] + CCCO showed an osmotic coefficient (m1 = 0.0437) of 0.873 ± 0.013, an osmotic coefficient (m1 = 0.0547) of 0.829 ± 0.013 and an osmotic coefficient (m1 = 0.2041) of 0.691 ± 0.016. The osmotic coefficient (m1 = 0.3571) was 0.639 ± 0.018, the osmotic coefficient (m1 = 0.5002) was 0.628 ± 0.018 and the osmotic coefficient (m1 = 0.6627) was 0.628 ± 0.018. For the same compound, the osmotic coefficient (m1 = 0.8487) was 0.629 ± 0.018, the osmotic coefficient (m1 = 1.007) was 0.629 ± 0.018 and the osmotic coefficient (m1 = 1.28) was 0.628 ± 0.018. For the same compound, the osmotic coefficient (m1 = 1.665) was 0.62 ± 0.018, the osmotic coefficient (m1 = 2.143) was 0.599 ± 0.019 and the osmotic coefficient (m1 = 2.937) was 0.581 ± 0.019.

Work on COS(=O)(=O)[O-].Cn1cc[n+](C)c1 [1,3-dimethylimidazolium methylsulfate] + CCCO yielded an osmotic coefficient (m1 = 0.0512) of 0.848 ± 0.013, an osmotic coefficient (m1 = 0.079) of 0.772 ± 0.014 and an osmotic coefficient (m1 = 0.0997) of 0.727 ± 0.015. For the same compound, the osmotic coefficient (m1 = 0.2023) was 0.67 ± 0.017, the osmotic coefficient (m1 = 0.2902) was 0.59 ± 0.019 and the osmotic coefficient (m1 = 0.3952) was 0.544 ± 0.02. The osmotic coefficient (m1 = 0.488) was 0.526 ± 0.021, the osmotic coefficient (m1 = 0.6881) was 0.492 ± 0.022 and the osmotic coefficient (m1 = 0.9815) was 0.454 ± 0.023. It also gave an osmotic coefficient (m1 = 1.299) of 0.432 ± 0.023, an osmotic coefficient (m1 = 1.691) of 0.396 ± 0.025 and an osmotic coefficient (m1 = 2.097) of 0.375 ± 0.025. It also gave an osmotic coefficient (m1 = 2.545) of 0.36 ± 0.026, an osmotic coefficient (m1 = 2.929) of 0.343 ± 0.026 and an osmotic coefficient (m1 = 3.323) of 0.334 ± 0.026. For the same compound, the osmotic coefficient (m1 = 3.71) was 0.322 ± 0.027.

CCCCn1cc[n+](C)c1.COS(=O)(=O)[O-] [1-butyl-3-methylimidazolium methyl sulfate] + CCO gave an osmotic coefficient (m1 = 0.0495) of 0.78 ± 0.014, an osmotic coefficient (m1 = 0.0783) of 0.716 ± 0.016 and an osmotic coefficient (m1 = 0.176) of 0.646 ± 0.017. It also gave an osmotic coefficient (m1 = 0.3283) of 0.573 ± 0.019, an osmotic coefficient (m1 = 0.3907) of 0.55 ± 0.02 and an osmotic coefficient (m1 = 0.5167) of 0.529 ± 0.021. It also gave an osmotic coefficient (m1 = 0.6846) of 0.508 ± 0.021, an osmotic coefficient (m1 = 0.9851) of 0.496 ± 0.021 and an osmotic coefficient (m1 = 1.318) of 0.499 ± 0.021. It also gave an osmotic coefficient (m1 = 1.727) of 0.48 ± 0.022, an osmotic coefficient (m1 = 2.093) of 0.474 ± 0.022 and an osmotic coefficient (m1 = 2.507) of 0.465 ± 0.022. For the same compound, the osmotic coefficient (m1 = 2.914) was 0.448 ± 0.023, the osmotic coefficient (m1 = 3.311) was 0.424 ± 0.024 and the osmotic coefficient (m1 = 3.697) was 0.408 ± 0.024.

Work on COS(=O)(=O)[O-].Cn1cc[n+](C)c1 [1,3-dimethylimidazolium methylsulfate] + CCO yielded an osmotic coefficient (m1 = 0.0289) of 0.815 ± 0.014, an osmotic coefficient (m1 = 0.0374) of 0.794 ± 0.014 and an osmotic coefficient (m1 = 0.0789) of 0.719 ± 0.016. It also gave an osmotic coefficient (m1 = 0.0991) of 0.687 ± 0.016, an osmotic coefficient (m1 = 0.1941) of 0.626 ± 0.018 and an osmotic coefficient (m1 = 0.3285) of 0.56 ± 0.02. It also gave an osmotic coefficient (m1 = 0.4326) of 0.53 ± 0.021, an osmotic coefficient (m1 = 0.5312) of 0.503 ± 0.021 and an osmotic coefficient (m1 = 0.6925) of 0.479 ± 0.022. The osmotic coefficient (m1 = 0.9868) was 0.449 ± 0.023, the osmotic coefficient (m1 = 1.284) was 0.424 ± 0.024 and the osmotic coefficient (m1 = 1.699) was 0.399 ± 0.024. For the same compound, the osmotic coefficient (m1 = 2.078) was 0.382 ± 0.025, the osmotic coefficient (m1 = 2.489) was 0.363 ± 0.026 and the osmotic coefficient (m1 = 2.937) was 0.345 ± 0.026. The osmotic coefficient (m1 = 3.314) was 0.326 ± 0.027, the osmotic coefficient (m1 = 3.709) was 0.325 ± 0.027 and the osmotic coefficient (m1 = 4.016) was 0.331 ± 0.027.
